{"source": "ChEMBL document CHEMBL6096636", "about": "(Bioorg Med Chem, 2024)", "key": {"[1]": {"system": "Plasmodium yoelii", "assay": "Antimalarial activity against erythrocytic stage of Plasmodium yoelli infected in female mouse model assessed as reduction in parasitemia at 30 mg/kg, ip pre-infected with parasite followed by twice daily compound administration from day 3 to 6 by microscopic analysis", "format": "functional, organism-based", "conditions": "time 4.0 day"}, "[2]": {"assay": "Half-life in female Balb/c mouse at 5 mg/kg, ip measured after 24 hrs by LC-MS/MS analysis", "format": "ADME, organism-based", "conditions": "in vivo"}, "[3]": {"assay": "Cmax in female Balb/c mouse at 5 mg/kg, ip measured after 24 hrs by LC-MS/MS analysis", "format": "ADME, organism-based", "conditions": "in vivo"}, "[4]": {"molecular_target": "T1, Histone deacetylase 8 (Homo sapiens, UniProt Q9BY41)", "T1 sequence (Q9BY41 whole entry)": "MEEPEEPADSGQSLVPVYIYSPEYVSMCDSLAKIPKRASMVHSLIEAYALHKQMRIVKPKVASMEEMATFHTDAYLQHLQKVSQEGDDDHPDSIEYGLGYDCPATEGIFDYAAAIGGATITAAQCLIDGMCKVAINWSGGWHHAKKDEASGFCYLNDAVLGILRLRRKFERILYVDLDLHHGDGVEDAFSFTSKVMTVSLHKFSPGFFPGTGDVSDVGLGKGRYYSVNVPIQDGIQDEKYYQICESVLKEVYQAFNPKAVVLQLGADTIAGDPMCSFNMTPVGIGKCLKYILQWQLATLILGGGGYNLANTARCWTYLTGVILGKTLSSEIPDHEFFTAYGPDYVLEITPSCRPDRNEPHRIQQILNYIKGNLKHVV", "assay": "Inhibition of recombinant human HDAC8 using Ac-peptide as substrate preincubated for 15 mins followed by substrate addition for 240 mins and measured after 120 mins of trypsin addition"}, "[5]": {"assay": "Cytotoxicity against HEK293T cells assessed as inhibition of cell growth incubated for 72 hrs by CCK8 assay", "format": "toxicity, cell-based, HEK-293T", "conditions": "human"}, "[6]": {"system": "Plasmodium falciparum", "assay": "Antimalarial activity against sulfadoxine-pyrimethamine and mefloquine resistant Plasmodium falciparum clinical isolate CP286 assessed as inhibition of growth incubated for 72 hrs by SYBR green I based assay", "format": "functional, organism-based"}, "[7]": {"assay": "Metabolic stability in mouse liver microsomes assessed as clearance measured upto 45 mins in presence of NADPH by LC-MS/MS analysis", "format": "ADME, Microsome", "conditions": "read-out: CLH"}, "[8]": {"system": "Plasmodium falciparum", "assay": "microbe, parasite or virus in culture", "conditions": "72 h", "description": "Antimalarial activity against quinine and chloroquine resistant Plasmodium falciparum clinical isolate C2A assessed as inhibition of growth incubated for 72 hrs by SYBR green I based assay"}, "[9]": {"system": "Plasmodium falciparum", "assay": "microbe, parasite or virus in culture", "conditions": "Dd2, 72 h", "description": "Antimalarial activity against erythrocytic stage of chloroquine-resistant Plasmodium falciparum Dd2 assessed as inhibition of growth incubated for 72 hrs by SYBR green I based assay"}, "[10]": {"molecular_target": "Histone deacetylase 1 (Homo sapiens, UniProt Q13547)", "sequence (Q13547 whole entry)": "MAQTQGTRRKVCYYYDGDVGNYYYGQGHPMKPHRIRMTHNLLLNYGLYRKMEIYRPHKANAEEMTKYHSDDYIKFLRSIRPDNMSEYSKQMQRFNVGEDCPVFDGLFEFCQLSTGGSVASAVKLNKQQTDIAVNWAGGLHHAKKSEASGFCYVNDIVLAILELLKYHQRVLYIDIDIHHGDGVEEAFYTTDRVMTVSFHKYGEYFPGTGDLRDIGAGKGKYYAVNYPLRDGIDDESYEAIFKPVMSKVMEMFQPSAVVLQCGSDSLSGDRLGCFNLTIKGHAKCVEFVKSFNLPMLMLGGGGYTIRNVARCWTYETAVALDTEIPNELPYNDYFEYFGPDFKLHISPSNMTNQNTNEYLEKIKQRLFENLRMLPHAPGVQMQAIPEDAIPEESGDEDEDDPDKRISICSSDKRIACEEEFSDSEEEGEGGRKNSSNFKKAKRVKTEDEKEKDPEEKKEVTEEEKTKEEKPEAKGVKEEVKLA", "assay": "Inhibition of recombinant human HDAC1 using Ac-peptide as substrate preincubated for 15 mins followed by substrate addition and measured after 60 mins"}, "[11]": {"system": "Plasmodium falciparum", "assay": "microbe, parasite or virus in culture", "conditions": "72 h", "remark": "listed apart in the source", "description": "Antimalarial activity against chloroquine resistant Plasmodium falciparum clinical isolate GB4 assessed as inhibition of growth incubated for 72 hrs by SYBR green I based assay"}, "[12]": {"molecular_target": "Histone deacetylase 2 (Homo sapiens, UniProt Q92769)", "sequence (Q92769 whole entry)": "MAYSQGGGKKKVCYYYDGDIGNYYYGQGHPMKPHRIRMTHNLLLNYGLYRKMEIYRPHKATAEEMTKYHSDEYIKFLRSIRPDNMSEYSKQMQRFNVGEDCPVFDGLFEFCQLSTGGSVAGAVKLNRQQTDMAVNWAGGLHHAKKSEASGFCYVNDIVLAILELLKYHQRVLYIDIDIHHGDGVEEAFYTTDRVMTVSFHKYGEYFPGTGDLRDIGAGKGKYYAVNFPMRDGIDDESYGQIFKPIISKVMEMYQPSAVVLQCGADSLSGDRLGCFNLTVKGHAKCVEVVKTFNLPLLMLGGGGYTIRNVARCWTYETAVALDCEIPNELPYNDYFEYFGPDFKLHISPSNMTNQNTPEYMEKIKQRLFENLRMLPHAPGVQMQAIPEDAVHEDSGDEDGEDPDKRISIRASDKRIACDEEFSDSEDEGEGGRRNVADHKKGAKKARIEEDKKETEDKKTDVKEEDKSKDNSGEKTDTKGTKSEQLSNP", "assay": "Inhibition of recombinant human HDAC2 using Ac-peptide as substrate preincubated for 15 mins followed by substrate addition and measured after 60 mins"}, "[13]": {"molecular_target": "Histone deacetylase 3 (Homo sapiens, UniProt O15379)", "sequence (O15379 whole entry)": "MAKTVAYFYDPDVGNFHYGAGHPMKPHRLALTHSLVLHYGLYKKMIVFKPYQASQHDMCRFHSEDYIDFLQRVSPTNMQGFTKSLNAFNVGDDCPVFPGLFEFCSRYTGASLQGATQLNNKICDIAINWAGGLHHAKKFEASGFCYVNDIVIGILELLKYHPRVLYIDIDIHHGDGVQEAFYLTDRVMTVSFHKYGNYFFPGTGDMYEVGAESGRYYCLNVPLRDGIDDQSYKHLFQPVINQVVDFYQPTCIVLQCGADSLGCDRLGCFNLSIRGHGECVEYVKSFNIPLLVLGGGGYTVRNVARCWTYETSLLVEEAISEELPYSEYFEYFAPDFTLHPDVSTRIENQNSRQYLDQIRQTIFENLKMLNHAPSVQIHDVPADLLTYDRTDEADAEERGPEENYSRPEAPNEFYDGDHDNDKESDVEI", "assay": "Inhibition of recombinant human HDAC3 using Ac-peptide as substrate preincubated for 15 mins followed by substrate addition and measured after 60 mins"}, "[14]": {"system": "Plasmodium falciparum", "assay": "microbe, parasite or virus in culture", "conditions": "3D7, 72 h", "description": "Antimalarial activity against erythrocytic stage of Plasmodium falciparum 3D7 assessed as inhibition of growth incubated for 72 hrs by SYBR green I based assay"}, "[15]": {"assay": "Apparent volume of distribution during terminal phase in female Balb/c mouse at 5 mg/kg, ip measured after 24 hrs by LC-MS/MS analysis", "format": "ADME, organism-based", "conditions": "in vivo, read-out: Vz/F"}, "[16]": {"assay": "AUC (0 to infinity) in female Balb/c mouse at 5 mg/kg, ip measured after 24 hrs by LC-MS/MS analysis", "format": "ADME, organism-based", "conditions": "in vivo"}, "[17]": {"assay": "Metabolic stability in mouse liver microsomes assessed as half-life measured upto 45 mins in presence of NADPH by LC-MS/MS analysis", "format": "ADME, Microsome"}, "[18]": {"assay": "Cytotoxicity against human HepG2 cells assessed as inhibition of cell growth incubated for 72 hrs by CCK8 assay", "format": "toxicity, cell-based"}, "[19]": {"assay": "Tmax in female Balb/c mouse at 5 mg/kg, ip measured after 24 hrs by LC-MS/MS analysis", "format": "ADME, organism-based", "conditions": "in vivo"}, "[20]": {"molecular_target": "T2, NAD-dependent protein deacetylase sirtuin-2 (Homo sapiens, UniProt Q8IXJ6)", "T2 sequence (Q8IXJ6 whole entry)": "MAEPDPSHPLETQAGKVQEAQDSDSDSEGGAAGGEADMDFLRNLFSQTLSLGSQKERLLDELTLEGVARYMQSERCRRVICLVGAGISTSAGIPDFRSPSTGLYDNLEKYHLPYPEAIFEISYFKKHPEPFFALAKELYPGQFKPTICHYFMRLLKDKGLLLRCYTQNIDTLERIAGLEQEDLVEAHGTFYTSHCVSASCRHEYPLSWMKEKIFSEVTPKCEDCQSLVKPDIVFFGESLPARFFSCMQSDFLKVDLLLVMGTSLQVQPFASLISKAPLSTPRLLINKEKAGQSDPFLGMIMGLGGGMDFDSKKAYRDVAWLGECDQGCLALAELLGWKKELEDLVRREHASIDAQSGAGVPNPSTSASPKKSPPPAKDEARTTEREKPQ", "assay": "Inhibition of recombinant human SIRT2 using Ac-peptide as substrate preincubated for 15 mins followed by substrate addition for 240 mins and measured after 120 mins of trypsin addition"}, "[21]": {"assay": "Toxicity in female mouse model infected with erythrocytic stage of Plasmodium yoelli assessed as animal death at 30 mg/kg, ip pre-infected with parasite followed by twice daily compound administration from day 3 to 6", "format": "organism-based", "conditions": "in vivo, 96 h, time 4 day"}, "[22]": {"system": "Plasmodium falciparum", "assay": "Inhibition of asynchronous ring stage Plasmodium falciparum 3D7 HDAC assessed as increase in histone H3 acetylation level at 20 times of IC50 concentration incubated for 2 hrs by Western blot analysis"}}, "note": "pIC50: −log10 of the molar value. Active and inactive are the calls of the source. The rule behind the calls is not given here."}
{"smiles": "Cc1ccc2c(CN[C@H]3CC[C@@H](Nc4ncc(C(=O)NO)cn4)CC3)cn(C)c2c1.Cl", "values": [{"measurement": "Activity", "setting": "[1]", "result": "Active; Only Slight Recurrence Of Parasitemia Was Observed Upon Cessation Of Treatment"}, {"measurement": "half-life", "setting": "[2]", "result": 114, "unit": "min"}, {"measurement": "Cmax", "setting": "[3]", "result": 803, "unit": "ng/mL"}, {"measurement": "pIC50", "setting": "[4]", "result": 7.37}, {"measurement": "IC50 at 72 h", "setting": "[5]", "result": 7750, "unit": "nM"}, {"measurement": "pIC50", "setting": "[6]", "result": 7.55}, {"measurement": "CLint scaled", "setting": "[7]", "result": 140, "unit": "mL/min/kg"}, {"measurement": "pIC50", "setting": "[8]", "result": 7.61}, {"measurement": "pIC50", "setting": "[9]", "result": 7.71}, {"measurement": "pIC50", "setting": "[10]", "result": 8.31}, {"measurement": "pIC50", "setting": "[11]", "result": 7.53}, {"measurement": "pIC50", "setting": "[12]", "result": 7.96}, {"measurement": "pIC50", "setting": "[13]", "result": 7.64}, {"measurement": "pIC50", "setting": "[14]", "result": 7.95}, {"measurement": "Vd/F", "setting": "[15]", "result": 16.1, "unit": "L/kg"}, {"measurement": "AUC(0-inf)", "setting": "[16]", "result": 853, "unit": "ng·h/mL"}, {"measurement": "half-life", "setting": "[17]", "result": 39, "unit": "min"}, {"measurement": "IC50 at 72 h", "setting": "[18]", "result": 5290, "unit": "nM"}, {"measurement": "Tmax", "setting": "[19]", "result": 15, "unit": "min"}, {"measurement": "pIC50", "setting": "[20]", "result": "< 5.00"}, {"measurement": "Activity", "setting": "[21]", "result": "Toxic"}, {"measurement": "inhibition", "setting": "[22]", "result": "Active"}]}
